Results on eight molecules are retold here after ChEMBL document CHEMBL1201862, “PubChem BioAssay data set” (2004).

Calls of active or inactive are those of the source. Some results are limits rather than exact numbers.

Assay [1] addresses G-protein coupled receptor 183 (Homo sapiens, UniProt P32249). As to the kind of experiment: SAR confirmation of small molecule antagonists of the EBI2 receptor via a luminescent beta-arrestin assa. Type of assay: functional.
In the next assay the target is Protein Wnt-3a (Mus musculus, UniProt P27467). Briefly: antagonism of Wnt3a pathway luciferase reporter – Wnt-LIGHT cells, luminescence, selectivity assay for Gli-SUFU antagonist project, dose response (AID 651570).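 Note: Wnt-LIGHT reporter cells stimulated with conditioned medium from Wnt3a-producing cells.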 As to conditions: read-out: IC50_Mean. Type of assay: functional.
For assay [2], the target named is COUP transcription factor 2 (Homo sapiens, UniProt P24468). As to the kind of experiment: Luminescence-based cell-based high throughput dose response assay to identify inhibitors of COUP-TFII (NR2F2). Type of assay: functional.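 Note: HEK293 cells transiently cotransfected with COUP-TFII expression vector and reporter; luciferase reporter luminescence driven by COUP-TFII from the pX2-168 reporter plasmid.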
For a further assay, the target named is Kallikrein-7 (Homo sapiens, UniProt P49862). As to the kind of experiment: Fluorescence Intensity-based biochemical primary high throughput dose response assay to identify activators of kallikrein-7 (K7) zymogen.
Assay [3] can be described thus: L6 myocyte viability loss – cell-based, plate reader, cherry-pick, cytotoxicity control, dose response (AID 651896). Type of assay: functional.
The nature of assay [4]: antileishmanial activity on axenic amastigotes – plate reader, cherry pick, dose response (AID 651891). Format: functional, cell-based. As to conditions: Leishmania donovani.
Assay [5] is described as follows: intracellular Trypanosoma cruzi inhibitors in host cells – cell-based, plate reader, cherry-pick samples, set 3, dose response (AID 651818).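 Note: compounds incubated with infected cells for about four days.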 Type of assay: functional.
Assay [6] in a line: African trypanosome bloodstream form growth inhibition – STIB900 strain, plate reader, cherry pick, dose response (AID 651893). Format: functional, cell-based, Trypanosoma brucei rhodesiense. Particulars: Trypanosoma brucei.
The nature of assay [7]: antimalarial activity against erythrocytic parasites – NF54 strain, plate reader, dry powder, dose response (AID 651889). Format: functional, cell-based.
Assay [8] can be described thus: host muscle cell viability loss – plate reader, dry powder, counter-screen for T. cruzi inhibitor project, dose response (AID 651895). Type of assay: functional, cell-based.
Assay [9] can be described thus: T. cruzi growth inhibition in host cells, dose response, cell-based, plate reader, dry powder, set 2 (AID 652275). Format: functional.
A short description of assay [10]: Trypanosoma cruzi replication inhibitors in host cells – cell-based, plate reader, dry powder samples, dose response (AID 651845). Type of assay: functional.
A short description of assay [11]: anti-trypanosomal activity in BESM host cells – imaging, CA-I/72 strain, bovine embryo skeletal muscle, dry powder, dose response (AID 651885). Type of assay: functional, cell-based.
Assay [12] can be described thus: antileishmanial activity on axenic amastigotes – plate reader, dry powder, dose response (AID 651892). Type of assay: functional, cell-based.
A short description of assay [13]: intracellular Chagas parasite inhibition in myoblasts – Tulahuen strain, L-6 host cells, dry powder, dose response (AID 651890). Type of assay: functional, cell-based.
Assay [14] is described as follows: African trypanosome bloodstream form growth inhibition – STIB900 strain, plate reader, dry powder, dose response (AID 651894). Format: functional, cell-based.
Another assay concerns the target Genome polyprotein (Hepatitis C virus, UniProt Q2Q167). As to the kind of experiment: disruption of hepatitis C core self-association – biochemical, TR-FRET, dose response (AID 2159).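 Note: blocks dimerization of HCV core protein measured by TR-FRET between tagged core106 pairs.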 The arrangement: species or system Hepacivirus hominis.
The target of assay [15] is Heat shock protein HSP 90-alpha (Homo sapiens, UniProt P07900). As to the kind of experiment: Luminescence-based dose response biochemical high throughput screening assay for inhibitors of the Heat Shock Protein 90 (HSP90). [Related pubchem assays: 1831 (Summary AID.), 1846 (Confirmation screen.), 1789 (Primary screen.)].
Assay [16] can be described thus: growth inhibition of yeast DHODH-expressing 3D7 parasites – SYBR Green, dry powder samples, dose response (AID 1159570).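 Note: parasite growth measured after 72 hours of compound exposure.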 Type of assay: functional, cell-based.
Assay [17] is described as follows: Dd2 parasite growth inhibition in erythrocytes – SYBR Green, dry powder samples, set 9, dose response (AID 1159568). Type of assay: functional, cell-based.
Assay [18] is described as follows: P. falciparum Dd2 growth inhibitors, dose response, SYBR Green, cherry-picked samples (AID 1159567). Format: functional, cell-based.
Assay [19] can be described thus: Dd2 malaria parasite growth inhibition potency – SYBR Green, dry powder samples, dose response (AID 1159566).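 Note: potency for growth inhibition with lower SYBR green DNA signal.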 Format: functional, cell-based.
A short description of assay [20]: Plasmodium falciparum Dd2 Sybr green parasite growth Measured in Cell-Based and Microorganism Combination System Using Plate Reader - 2153-01_Inhibitor_Dose_DryPowder_Activity_Set3. Format: functional.
Assay [21] is described as follows: growth inhibition of PfATP4-mutant resistant parasites – NITD609-resistant line, SYBR Green, dry powder, dose response (AID 1159571).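 Note: parasites synchronized at ring stage by sorbitol before testing.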 Format: functional, cell-based.
A further assay deals with Jurkat. Briefly: blockers of NF-kB activation in T cells – Jurkat, luciferase reporter, luminescence, B- and T-cell, dose response (AID 489004).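 Note: NF-kB luciferase reporter Jurkat cells stimulated with PMA plus ionomycin.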 Type of assay: functional, cell-based. Particulars: Homo sapiens.
Assay [22] in a line: HEK-293T viability loss, compound-treated – cell-based, uHTS hits, cytotoxicity control for B/T-cell NF-kB inhibitor project, dose response (AID 489019).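 Note: IC50 reflects cytotoxicity as loss of cell viability.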 Format: functional.
In a further assay the test system is INS1. Briefly: INS-1E survival protection against cytokine death – cell-based, luminescence, retest, dose response (AID 449756).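 Note: cell death triggered by IL-1 beta plus TNF-alpha plus IFN-gamma mixture; protective hits raise ATP signal compared with cytokine alone wells.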 Format: functional. As to conditions: Rattus norvegicus.
A short description of assay [23]: reduction of Shn3 3'UTR-driven luciferase in osteoblasts – cell-based, Clone20 osteoblasts, firefly luciferase, cherry-picked, dose response (AID 624132).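 Note: firefly luciferase luminescence from reporter carrying the Shn3 3'UTR in osteoblasts.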 Type of assay: functional.
Assay [24] can be described thus: loss of viability in HepG2 cells – cell-based, CellTiter-Glo, cherry-picked, cytotoxicity control for Shn3 inhibitor project, dose response (AID 624134). Format: functional.
A short description of assay [25]: non-specific 3'UTR reporter inhibition in Clone20-Shn3RL – cell-based, Renilla luciferase, cherry-picked, counter-screen for Shn3 inhibitor project, dose response (AID 624133). Format: functional.
Assay [26] can be described thus: reduced cellular PGC1a acetyl-lysine signal – cell-based, cherry-picked samples, dose response (AID 720514).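 Note: potency may reflect raised or lowered acetylation signal.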 Format: functional.
Assay [27] can be described thus: A549 cell cytotoxicity, dose response, cytotoxicity control, plate reader, cherry-pick, antagonist series (AID 743412). Format: functional, cell-based.
Assay [28] is described as follows: toxicity toward HepG2 liver cells – cell-based, plate reader, cherry-pick, antagonist series, cytotoxicity control, dose response (AID 743416). Format: functional.
The nature of assay [29]: blockers of bursicon-stimulated LGR2 cAMP reporter – cell-based, HEK293, CRE-luciferase reporter, cherry pick, set 2, dose response (AID 743343).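 Note: transfected cells were stimulated with diluted bursicon conditioned medium after compound addition.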 Format: functional.
The nature of assay [30]: blockade of melanocortin 4 receptor signaling – cell-based, plate reader, cherry pick, counter-screen for LGR2 antagonist project, dose response (AID 743444).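 Note: transfected HEK 293 cells stimulated with alpha-MSH peptide; potency of inhibitors of the alpha-MSH evoked signal.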 Type of assay: functional.
Assay [31] in a line: viability loss in HEK293 cells – cell-based, plate reader, cherry-picked samples, cytotoxicity control, dose response (AID 743446). Format: functional.

Genome polyprotein, sequence (Q2Q167 whole entry): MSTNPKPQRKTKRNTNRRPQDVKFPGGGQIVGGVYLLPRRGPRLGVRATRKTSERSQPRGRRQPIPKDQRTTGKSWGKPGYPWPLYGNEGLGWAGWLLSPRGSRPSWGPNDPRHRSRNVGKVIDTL
Kallikrein-7, sequence (P49862 whole entry): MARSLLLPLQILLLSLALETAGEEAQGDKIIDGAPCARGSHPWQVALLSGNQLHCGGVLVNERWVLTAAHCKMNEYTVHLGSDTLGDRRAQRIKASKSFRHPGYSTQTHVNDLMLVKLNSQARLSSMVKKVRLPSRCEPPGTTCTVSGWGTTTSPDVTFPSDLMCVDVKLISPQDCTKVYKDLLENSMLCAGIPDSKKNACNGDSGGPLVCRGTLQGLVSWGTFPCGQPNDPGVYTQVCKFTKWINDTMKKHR
COUP transcription factor 2, sequence (P24468 whole entry): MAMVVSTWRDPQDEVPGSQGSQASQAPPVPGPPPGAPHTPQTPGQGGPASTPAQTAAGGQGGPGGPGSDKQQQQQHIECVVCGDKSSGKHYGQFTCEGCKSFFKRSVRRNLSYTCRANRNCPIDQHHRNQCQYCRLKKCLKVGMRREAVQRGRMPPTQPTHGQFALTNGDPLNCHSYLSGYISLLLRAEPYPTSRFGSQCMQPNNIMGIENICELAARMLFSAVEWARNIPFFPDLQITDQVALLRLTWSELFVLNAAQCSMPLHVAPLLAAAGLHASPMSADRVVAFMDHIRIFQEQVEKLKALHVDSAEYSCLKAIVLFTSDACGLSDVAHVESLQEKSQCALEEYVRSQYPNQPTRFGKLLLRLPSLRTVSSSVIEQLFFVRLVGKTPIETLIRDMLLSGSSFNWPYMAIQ
Protein Wnt-3a, sequence (P27467 whole entry): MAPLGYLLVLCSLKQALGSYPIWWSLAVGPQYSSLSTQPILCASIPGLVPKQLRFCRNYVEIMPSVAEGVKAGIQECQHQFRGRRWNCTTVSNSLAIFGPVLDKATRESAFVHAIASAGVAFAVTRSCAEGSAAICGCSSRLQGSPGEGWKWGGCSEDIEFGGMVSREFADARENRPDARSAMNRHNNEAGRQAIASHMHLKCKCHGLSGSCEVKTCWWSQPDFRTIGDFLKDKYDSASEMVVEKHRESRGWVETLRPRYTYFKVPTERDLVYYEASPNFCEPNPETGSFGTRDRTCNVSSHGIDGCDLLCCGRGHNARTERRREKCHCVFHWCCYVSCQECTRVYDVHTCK
G-protein coupled receptor 183, sequence (P32249 whole entry): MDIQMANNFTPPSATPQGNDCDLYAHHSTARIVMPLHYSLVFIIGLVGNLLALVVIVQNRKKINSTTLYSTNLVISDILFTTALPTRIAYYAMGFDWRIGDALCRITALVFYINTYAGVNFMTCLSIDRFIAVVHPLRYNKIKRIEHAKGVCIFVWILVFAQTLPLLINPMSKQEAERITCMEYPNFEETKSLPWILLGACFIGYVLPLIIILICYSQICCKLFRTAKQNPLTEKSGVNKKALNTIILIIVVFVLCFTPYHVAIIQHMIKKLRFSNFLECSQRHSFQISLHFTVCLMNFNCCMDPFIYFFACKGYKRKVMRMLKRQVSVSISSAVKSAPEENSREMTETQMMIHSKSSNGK

In the case of `O=C(CCc1ccc(F)cc1)N1CCN(S(=O)(=O)/C=C/c2ccccc2)CC1`, the IC50 in [1] is 113 nM (active).
Take `CCC(C)NC(=O)CCC(=O)OC1O[C@H]2OC3(C)CC[C@H]4[C@H](C)CCC(C1C)C24OO3` (stereo partly specified): the IC50 was 238 nM (active) on Protein Wnt-3a and 468000 nM (inactive) in [2].
Take `CNc1ccc(-c2cccc(CO)c2)cn1`: the 50% effective concentration (EC50) on Kallikrein-7 is > 7720 nM (active).
`C[C@H]1CN([C@@H](C)CO)C(=O)c2cccc(NC(=O)c3ccncc3)c2O[C@@H]1CN(C)Cc1ccc(Oc2ccccc2)cc1`: the IC50 was 14400 nM (active) in assay [3]; 13200 nM (inactive) in assay [4]; 5780 nM (inactive) in [6]; 504 nM (inactive) in assay [7]; 17100 nM (inactive) in assay [8]; 0.66 nM (active) in assay [11]. Further, the figures for the IC50 in [12], in assay [13] and in assay [14] were 8400 nM (inactive), 29.5 nM (active) and 1500 nM (inactive), respectively. In addition, the values for the AC50 in assay [5], in [9] and in [10] were 80 nM (active), 4.42 nM (active) and 0.457 nM (active), respectively.
As to `Cc1ccc(OCC(=O)Nc2nnc(S(=O)(=O)N3CCC(C)CC3)s2)cc1`, the IC50 against Genome polyprotein is > 49800 nM (not active).
In the case of `Cc1nc(NC(=O)/C=C/c2ccccc2)sc1C(=O)Nc1ccccc1Cl`, in assay [15], the IC50 is 2910 nM (active).
In the case of `CO[C@@H]1CN(C)C(=O)c2ccc(NC(=O)Nc3ccccc3F)cc2OC[C@@H](C)N(Cc2ccccc2F)C[C@H]1C`, the AC50 in assay [16] is 948 nM (active); in assay [17], 674 nM (active); in assay [18], 356 nM (active); in [19], 44.9 nM (active); in [20], 586 nM (active); in assay [21] it was 122 nM (active).
Take `C#CC(=O)N(c1cccc(OC)c1)C(C(=O)NC1CCCC1)c1cccs1` (stereo unspecified): the IC50 in the assay on Jurkat is 250 nM (active); in [22], 28400 nM (inactive). Further, the AC50 in the assay on INS1 is 650 nM (active); in [23], 3800 nM (active); in [24], 3760 nM (active); in assay [25] it was 9760 nM (active); in assay [26], 3820 nM (active); in [27], 8460 nM (active). Besides, the concentration at half-maximal activity (AC50) is 960 nM (active) in assay [28], 2530 nM (active) in assay [29], 2250 nM (active) in assay [30] and 1650 nM (active) in assay [31].
